Experimental data: PubChem BioAssay AID270 (DTP/NCI, 2004)
“And” between values parts separate entries of the source, which are not always exact repeats. Equal entries are not always repeated. Results filed as inconclusive are left out.

Test system: BDF1 mice, s.c. Lewis lung carcinoma, T/C %
Experiment: NCI In Vivo Anticancer Drug Screen. Data for tumor model Lewis Lung Carcinoma (subcutaneous) in B6D2F1 (BDF1) mice
Summary of the method: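 Readout: survival or tumor size, expressed as treated (T) over vehicle control (C). Transplantable tumor implanted in mice; compound given to the treated group.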

In the case of `O=NN(CCCl)C(=O)NC1CCC(=O)NC1=O` (stereo not given), the T/C (endpoint: median survival time, dose: 0.5 mg/kg/injection, schedule: Q01DX009 (ip), vehicle: Klucel (hydroxypropylcellulose) (HPC), higher = longer survival) is reported as 107 % of control and 110 % of control, the T/C (endpoint: median survival time, dose: 1.0 mg/kg/injection, schedule: Q01DX009 (ip), vehicle: Klucel (hydroxypropylcellulose) (HPC), higher = longer survival) is reported as 100 % of control and 105 % of control and the T/C (endpoint: median survival time, dose: 1.25 mg/kg/injection, schedule: Q01DX009 (ip), vehicle: other, higher = longer survival) is reported as 122 % of control. For the same compound, the T/C (endpoint: median survival time, dose: 2.0 mg/kg/injection, schedule: Q01DX009 (ip), vehicle: Klucel (hydroxypropylcellulose) (HPC), higher = longer survival) was 101 % of control and 117 % of control, the T/C (endpoint: median survival time, dose: 2.0 mg/kg/injection, schedule: Q02DX009 (ip), vehicle: saline with Tween-80, higher = longer survival) was 90 % of control and the T/C (endpoint: median survival time, dose: 3.0 mg/kg/injection, schedule: Q02DX009 (ip), vehicle: saline with Tween-80, higher = longer survival) was 93 % of control. The T/C (endpoint: median survival time, dose: 4.0 mg/kg/injection, schedule: Q01DX009 (ip), vehicle: Klucel (hydroxypropylcellulose) (HPC), higher = longer survival) was 182 % of control, the T/C (endpoint: median survival time, dose: 5.0 mg/kg/injection, schedule: Q01DX001 (ip), vehicle: gum acacia, higher = longer survival) was 89 % of control and the T/C (endpoint: median survival time, dose: 5.0 mg/kg/injection, schedule: Q01DX001 (ip), vehicle: other, higher = longer survival) was 120 % of control. The T/C (endpoint: median survival time, dose: 5.0 mg/kg/injection, schedule: Q01DX001 (ip), vehicle: saline, higher = longer survival) was 96 % of control, the T/C (endpoint: median survival time, dose: 6.0 mg/kg/injection, schedule: Q04DX003 (ip), vehicle: saline with Tween-80, higher = longer survival) was 93 % of control and the T/C (endpoint: median survival time, dose: 10.0 mg/kg/injection, schedule: Q01DX001 (ip), vehicle: other, higher = longer survival) was 107 % of control and 124 % of control. The T/C (endpoint: median survival time, dose: 10.0 mg/kg/injection, schedule: Q01DX001 (ip), vehicle: saline with Tween-80, higher = longer survival) was 111 % of control, the T/C (endpoint: median survival time, dose: 10.0 mg/kg/injection, schedule: Q01DX001 (ip), vehicle: saline, higher = longer survival) was 101 % of control and the T/C (endpoint: median survival time, dose: 10.0 mg/kg/injection, schedule: Q04DX003 (ip), vehicle: saline with Tween-80, higher = longer survival) was 120 % of control. The T/C (endpoint: median survival time, dose: 15.0 mg/kg/injection, schedule: Q01DX001 (ip), vehicle: saline with Tween-80, higher = longer survival) was 108 % of control, the T/C (endpoint: median survival time, dose: 22.5 mg/kg/injection, schedule: Q01DX001 (ip), vehicle: saline with Tween-80, higher = longer survival) was 208 % of control and the T/C (endpoint: median survival time, dose: 26.0 mg/kg/injection, schedule: Q01DX001 (ip), vehicle: gum acacia, higher = longer survival) was 168 % of control. The T/C (endpoint: median survival time, dose: 40.0 mg/kg/injection, schedule: Q01DX001 (ip), vehicle: saline, higher = longer survival) was 156 % of control, the T/C (endpoint: median tumor weight (est.), dose: 7.6 mg/kg/injection, schedule: Q01DX001 (ip), vehicle: gum acacia, higher = larger tumour) was 93 % of control and the T/C (endpoint: median tumor weight (est.), dose: 15.0 mg/kg/injection, schedule: Q01DX001 (ip), vehicle: gum acacia, higher = larger tumour) was 10 % of control.
`CCCC(=O)NC1=C(N2CC2)C(=O)C(NC(=O)CCC)=C(N2CC2)C1=O` was tested, and the T/C (endpoint: mean tumor weight, dose: 0.8 mg/kg/injection, schedule: Q01DX011 (ip), vehicle: other, higher = larger tumour) was 81 % of control, the T/C (endpoint: mean tumor weight, dose: 1.5 mg/kg/injection, schedule: Q01DX011 (ip), vehicle: other, higher = larger tumour) was 42 % of control and the T/C (endpoint: mean tumor weight, dose: 3.0 mg/kg/injection, schedule: Q01DX011 (ip), vehicle: other, higher = larger tumour) was 28 % of control.
For `CC(=O)OCC1CCC(NC(=O)N(CCCl)N=O)CC1` (stereo not given), the T/C (endpoint: median survival time, dose: 8.0 mg/kg/injection, schedule: Q01DX001 (ip), vehicle: Klucel (hydroxypropylcellulose) (HPC), higher = longer survival) was 112 % of control, the T/C (endpoint: median survival time, dose: 12.0 mg/kg/injection, schedule: Q01DX001 (ip), vehicle: Klucel (hydroxypropylcellulose) (HPC), higher = longer survival) was 124 % of control and the T/C (endpoint: median survival time, dose: 18.0 mg/kg/injection, schedule: Q01DX001 (ip), vehicle: Klucel (hydroxypropylcellulose) (HPC), higher = longer survival) was 163 % of control. The T/C (endpoint: median survival time, dose: 26.0 mg/kg/injection, schedule: Q01DX001 (ip), vehicle: Klucel (hydroxypropylcellulose) (HPC), higher = longer survival) was 160 % of control and the T/C (endpoint: median survival time, dose: 40.0 mg/kg/injection, schedule: Q01DX001 (ip), vehicle: Klucel (hydroxypropylcellulose) (HPC), higher = longer survival) was 104 % of control.
With `CC(C)CCCCCCCCCCCCC(=O)NCC(=O)NC1C(O)C(O)C(Nc2ncnc3nc[nH]c23)OC1C(O)CO` (stereo not given) the T/C (endpoint: mean tumor weight, dose: 0.25 mg/kg/injection, schedule: Q01DX011 (ip), vehicle: saline, higher = larger tumour) was 69 % of control, the T/C (endpoint: mean tumor weight, dose: 0.5 mg/kg/injection, schedule: Q01DX011 (ip), vehicle: saline, higher = larger tumour) was 54 % of control and the T/C (endpoint: mean tumor weight, dose: 1.0 mg/kg/injection, schedule: Q01DX011 (ip), vehicle: saline, higher = larger tumour) was 100 % of control.
In the case of `O=NN(CCCl)C(=O)NC1CCC(CC2CCC(NC(=O)N(CCCl)N=O)CC2)CC1` (stereo not given), the T/C (endpoint: median tumor weight (est.), dose: 46.0 mg/kg/injection, schedule: Q01DX001 (ip), vehicle: gum acacia, higher = larger tumour) is reported as 80 % of control, the T/C (endpoint: median tumor weight (est.), dose: 93.0 mg/kg/injection, schedule: Q01DX001 (ip), vehicle: gum acacia, higher = larger tumour) is reported as 76 % of control and the T/C (endpoint: median tumor weight (est.), dose: 187.0 mg/kg/injection, schedule: Q01DX001 (ip), vehicle: gum acacia, higher = larger tumour) is reported as 55 % of control. For the same compound, the T/C (endpoint: median tumor weight (est.), dose: 250.0 mg/kg/injection, schedule: Q01DX001 (ip), vehicle: gum acacia, higher = larger tumour) was 10 % of control and the T/C (endpoint: median tumor weight (est.), dose: 375.0 mg/kg/injection, schedule: Q01DX001 (ip), vehicle: gum acacia, higher = larger tumour) was 3 % of control.
For `CCCCCC[N+](CCCCCC)(CCCCCC)CCCCCC`, the T/C (endpoint: median survival time, dose: 0.75 mg/kg/injection, schedule: Q01DX009 (ip), vehicle: Klucel (hydroxypropylcellulose) (HPC), higher = longer survival) was 110 % of control, the T/C (endpoint: median survival time, dose: 1.5 mg/kg/injection, schedule: Q01DX009 (ip), vehicle: Klucel (hydroxypropylcellulose) (HPC), higher = longer survival) was 91 % of control and the T/C (endpoint: median survival time, dose: 3.0 mg/kg/injection, schedule: Q01DX009 (ip), vehicle: Klucel (hydroxypropylcellulose) (HPC), higher = longer survival) was 102 % of control.
